Test results published in US11471507B2, “HMGB1 antagonist” (THE FEINSTEIN INSTITUTES FOR MEDICAL RESEARCH, priority 2019, dated 2022).
Values joined by “and” are separate entries in the source; they are usually repeats but may differ in a detail not shown here. Identical values can stand only once. “Also recorded” adds a separate entry of the source. Like-named read-outs stand apart in the source and are kept apart here. Marks after values point to notes of the source that are not given here.

What was measured:
[1] = tested on: cecal ligation and puncture-sepsis; assay: Cecal ligation and puncture (CLP) sepsis; format: in vivo; details: male C57BL/6 mice; 500 μg/mouse IP once a day for 3 days starting 24 hours post CLP; n=15
[2] = tested on: APAP-induced liver injury; assay: APAP-induced liver injury model; format: in vivo, male C57BL/6 mice
Single-dose tolerability = format: in vivo; details: single-dose studies
STZ-induced diabetes = assay: STZ-induced diabetes; format: in vivo, mice; details: 500 μg/mouse repetitive administration; vs PBS
Procedure: Mice were administered repetitive administration of […] (500 μg/mouse). […] Repetitive administration of […] was therefore shown to be beneficial in STZ-induced diabetes. […] (*: P<0.05 vs. PBS group. N=6-8 mice per group).

[3] = Pharmacokinetics after intravenous administration in rats (LC-MS)
[4] = tested on: CCI-induced neuropathic pain; assay: Chronic constriction injury of the sciatic nerve (CCI) neuropathic pain; set-up: species or system male Wistar rats; details: rat, in vivo
in vivo = details: male, Sprague-Dawley, rat; for AUC(0-inf): iv, 1 mg/kg
F11 cells = assay: Disulfide HMGB1-induced calcium influx in F11 cells; format: cell-based; details: relative fluorescent intensity; most inhibition at 50 μg/ml
Description: These studies all measured relative fluorescent intensity with FIG. 30C which included the largest amount of […]

[5] = tested on: HMGB1-induced TNF release; assay: HMGB1-induced TNF release in human primary macrophages (ELISA); format: cell-based; details: FIG. 17A
Procedure: For all of these studies, TNF released was measured using an ELISA.

[6] = tested on: PAMPs-induced TNF release (LPS, PGN, AGE, Poly I:C); assay: PAMPs-induced TNF release in human macrophages; format: cell-based; details: LPS 4 ng/ml, poly I:C 50 μg/ml, PGN 5 μg/ml, S100A12 50 μg/ml; 16 hours
Solubility of K883 = format: physicochemical
Description: This provides the basis for developing intravenous (IV) formulation that will serve as a benchmark for developing oral (PO) formulations.

[7] = in vivo
[8] = tested on: CCI-induced neuropathic pain; assay: Chronic constriction injury of the sciatic nerve (CCI) neuropathic pain; format: in vivo, male Wistar rats; details: for Paw Withdrawal Latency: CCI
Procedure: The CCI rats each received surgery. […] Mechanical and thermal sensitivity tests were also performed over time. Hargreaves Thermal Hypersensitivity test was administered to the rats as well as Von Frey mechanical hypersensitivity test.
Rats (male Wistar, 150-180 gm, n=6/group) had CCI surgery. […] Two weeks after surgery, thermal (Hargreaves) or mechanical (von Frey) hypersensitivity was assessed. *: P<0.05 vs. PBS group. […]

[9] = tested on: DAMPs-induced TNF secretion (CIRP, SAA, PEDF, HSP 70, HSP90, H2A); assay: DAMPs-induced TNF secretion in human macrophages; format: cell-based; details: 16 hours
[10] = tested on: APAP-induced liver injury; details: comparative data, cited from earlier work
[11] = tested on: liver ischemia and reperfusion injury; details: 500 μg/mouse IP at time of I/R surgery; 6 hours; vs vehicle; cited from earlier work
[12] = tested on: cecal ligation and puncture-sepsis; details: male C57BL/6 mice; 50 or 500 μg/mouse IP once a day for 4 days starting 24 hours post CLP; n=20; comparative data; cited from earlier work

With `NC(=O)N(CCC(=O)O)NC(=O)[C@H](CO)NC(=O)[C@H](CO)NC(=O)N(N)Cc1ccccc1` [K883] the “sepsis lethality (survival 2 weeks)” value [1] was “protects against sepsis lethality”, the “serum ALT” value ([2]; 50 ugs/mouse, vs vehicle controls) was “reduced serum ALT” and the “liver necrosis (H&E histology)” value ([2]; APAP 350 mg/kg IP, K883 50 μg/mouse IP at 2 and 7 hours post-APAP, 24 hours, vs vehicle) was “reduced liver necrosis”. The “mice surviving the toxicity of APAP (2 weeks)” value ([2]; APAP 400 mg/kg, 50 μg/mouse IP once-a-day for 5 days starting 2 hours post-APAP, 8 in the control group) was 14 mice out of 15, the tolerability (Single-dose tolerability) was “well-tolerated” and the hyperglycemia (STZ-induced diabetes) was “delays hyperglycemia”. For the same molecule, the insulitis (STZ-induced diabetes) was “reduces insulitis”, the weight gain (STZ-induced diabetes) was “improves weight gain” and the “AUClast, individual rats” value ([3]; IV 1 mg/kg, 1 mg/kg) was 3772 ng·h/mL and 3807 ng·h/mL and 3749 ng·h/mL. The “MRTlast, individual rats” value ([3]; IV 1 mg/kg, 1 mg/kg) was 32.1 min and 31.7 min and 36.4 min, the “Vss, individual rats” value ([3]; IV 1 mg/kg, 1 mg/kg) was 0.163 L/kg and the “t1/2, individual rats” value ([3]; IV 1 mg/kg, 1 mg/kg) was 78 min. For the same molecule, the “Plasma concentration, individual rats” value ([3]; IV 1 mg/kg, 0.50 hr, 1 mg/kg) was 2500 ng/mL and 3220 ng/mL, the “Plasma concentration, individual rats” value ([3]; IV 1 mg/kg, 1.0 hr, 1 mg/kg) was 1160 ng/mL and 1300 ng/mL and the “Plasma concentration, individual rats” value ([3]; IV 1 mg/kg, 2.0 hr, 1 mg/kg) was 130 ng/mL and 142 ng/mL. The “Plasma concentration, individual rats” value ([3]; IV 1 mg/kg, 4.0 hr, 1 mg/kg) was 15.1 ng/mL and 17.7 ng/mL, the “Plasma concentration, individual rats” value ([3]; IV 1 mg/kg, 6.0 hr, 1 mg/kg) was 4.04 ng/mL and 4.77 ng/mL and the “Plasma concentration, individual rats” value ([3]; IV 1 mg/kg, 8.0 hr) was 2.01 ng/mL. The “Plasma concentration, individual rats” value ([3]; IV 1 mg/kg, 8.0 hr, 1 mg/kg) was 0.871 ng/mL and 1.68 ng/mL, the “AUClast, Mean” value ([3]; IV 1 mg/kg, mean of 3 rats) was 3776 ng·h/mL and the “MRTlast, Mean” value ([3]; IV 1 mg/kg, mean of 3 rats) was 33.4 min. The half-life ([3]; male, Sprague-Dawley, rat, in vivo, 1 mg/kg, in vivo half-life (T½)) was > 60 min, the AUC(0-inf) ([3]; male, Sprague-Dawley, rat, in vivo, iv, 1 mg/kg) was 3780 ng·h/mL and the concentration at 0.5 hr ([3]; male, Sprague-Dawley, rat, in vivo, iv, 1 mg/kg, Plasma concentration, Mean, IV 1 mg/kg, 0.50 hr, mean of 3 rats) was 2910 ng/mL. For the same molecule, the concentration at 1 hr ([3]; male, Sprague-Dawley, rat, in vivo, iv, 1 mg/kg, Plasma concentration, Mean, IV 1 mg/kg, 1.0 hr, mean of 3 rats) was 1090 ng/mL, the concentration at 2 hr ([3]; male, Sprague-Dawley, rat, in vivo, iv, 1 mg/kg, Plasma concentration, Mean, IV 1 mg/kg, 2.0 hr, mean of 3 rats) was 135 ng/mL and the concentration at 4 hr ([3]; male, Sprague-Dawley, rat, in vivo, iv, 1 mg/kg, Plasma concentration, Mean, IV 1 mg/kg, 4.0 hr, mean of 3 rats) was 16.6 ng/mL. It also gave a concentration at 6 hr ([3]; male, Sprague-Dawley, rat, in vivo, iv, 1 mg/kg, Plasma concentration, Mean, IV 1 mg/kg, 6.0 hr, mean of 3 rats) of 5.1 ng/mL, a concentration at 8 hr ([3]; male, Sprague-Dawley, rat, in vivo, iv, 1 mg/kg, Plasma concentration, Mean, IV 1 mg/kg, 8.0 hr, mean of 3 rats) of 1.52 ng/mL and a concentration at 0.5 hr ([3]; male, Sprague-Dawley, rat, in vivo, iv, 1 mg/kg, Plasma concentration, individual rats, IV 1 mg/kg, 0.50 hr) of 3020 ng/mL. The concentration at 1 hr ([3]; male, Sprague-Dawley, rat, in vivo, iv, 1 mg/kg, Plasma concentration, individual rats, IV 1 mg/kg, 1.0 hr) was 814 ng/mL, the concentration at 2 hr ([3]; male, Sprague-Dawley, rat, in vivo, iv, 1 mg/kg, Plasma concentration, individual rats, IV 1 mg/kg, 2.0 hr) was 133 ng/mL and the concentration at 4 hr ([3]; male, Sprague-Dawley, rat, in vivo, iv, 1 mg/kg, Plasma concentration, individual rats, IV 1 mg/kg, 4.0 hr) was 17 ng/mL. For the same molecule, the concentration at 6 hr ([3]; male, Sprague-Dawley, rat, in vivo, iv, 1 mg/kg, Plasma concentration, individual rats, IV 1 mg/kg, 6.0 hr) was 6.49 ng/mL, the “CCI-induced CXCL1, TNF and IL-1β expression (spine)” value [4] was “reduce CCI-induced CSCL1, TNF and IL-1β expression” and the “CCI-induced CXCL1 and TNF expression (DRGs)” value [4] was “reduce CCI-induced CSCL1 and TNF expression”. The AUC(0-inf) (in vivo; Mean) was 3780 ng·h/mL, the AUC(0-inf) (in vivo; individual rats) was 3810 ng·h/mL and the half-life (in vivo; serum half-life) was > 60 min. For the same molecule, the “disulfide HMGB1-induced calcium influx” value (F11 cells) was “inhibit disulfide hmgb1-induced calcium influx”, the “HMGB1-induced TNF secretion” value [5] was “inhibition” and the “PAMPs-induced TNF release” value [6] was “failed to inhibit other PAMPS; also recorded: does not inhibit other PAMPs”. For the same molecule, the solubility (Solubility of K883; aqueous with cosolvent or surfactant or cyclodextrin, PBS:PEG 300:propylene glycol:polysorbate 80 at 50:40:5:5, preliminary evidence, read-out: solubility in excipient mixture) was > 5000 µg/mL, the solubility (Solubility of K883; water, read-out: solubility in water) was < 100 µg/mL and the oral bioavailability [7] was “low oral bioavailability”. For the same molecule, the “CCI-induced thermal and mechanical hypersensitivity” value ([8]; 800 μg/rat IP once a day for 3 days, Hargreaves, von Frey) was “ameliorated both mechanical and thermal hypersensitivity; also recorded: improved CCI-induced thermal and mechanical hypersensitivity”, the “tolerance to repeated treatment” value ([8]; 800 μg/rat IP once daily for three days) was “did not develop tolerance” and the paw withdrawal ([8]; CCI rat model, vehicle 3.73+/−0.58 (SD)) was 5.45 ± 0.98 s. The “Paw Withdrawal Latency” value ([8]; 0 hours post treatment) was 4.1 ± 1.0 s, the “Paw Withdrawal Latency” value ([8]; 2 hours post treatment) was 4.3 ± 1.2 s and the “Paw Withdrawal Latency” value ([8]; 6 hours post treatment) was 6.0 ± 0.6* sec. The “Paw Withdrawal Latency” value ([8]; 24 hours post treatment) was 5.0 ± 0.5 s and the “TNF secretion induced by other DAMPs” value [9] was “not inhibited”.
For `NC(=O)[C@H](CCC(=O)O)NC(=O)[C@H](CO)NC(=O)[C@H](CO)NC(=O)[C@@H](N)Cc1ccccc1` [P5779], the “serum ALT” value ([10]; 500 ugs/mouse) is listed as “significant reductions in ALT”, the “liver necrosis (H&E histology)” value ([10]; APAP 350 mg/kg IP, P5779 50 or 500 μg/mouse IP at 2 and 7 hours, vs scrambled control peptide) is listed as “reduced liver necrosis” and the “Percent survival (2 weeks) post-APAP” value ([10]; APAP 400 mg/kg, 500 μg/mouse IP once a day for 5 days, n=30) is listed as “significantly improved”. The “Serum levels of ALT and AST” value [11] was “reduced” and the “sepsis lethality (survival 2 weeks)” value [12] was “protects against sepsis lethality”.
